Patent US20230173067A1 (Seagen Inc., priority 2020, published 2023)

Legend:
[1] = tested on: Calu-3 NSCLC xenograft model; test: Calu-3 HER2 positive NSCLC xenograft model, tumor growth inhibition; type: in vivo, Mice
Experimental: (§1) The TGI index is calculated for a particular time point (e.g., a specific number of days into an experiment or clinical trial) according to the following formula: […]
(§2) where “Tx Day 0” denotes the first day that treatment is administered (i.e., the first day that an experimental therapy or a control therapy (e.g., vehicle only) is administered) and “Tx Day X” denotes X number of days after Day 0. […] As a non-limiting example, in an experiment where study day 0 corresponds to “Tx Day 0” and the TGI index is calculated on study day 28 (i.e., “Tx Day 28”), if the mean tumor volume in both groups on study day 0 is 250 mm^3 and the mean tumor volumes in the experimental and control groups are 125 mm^3 and 750 mm^3, respectively, then the TGI index on day 28 is 125%.
(§3) For the Calu-3 study, tucatinib was administered orally at a dose of 50 mg/kg twice per day for 21 days, beginning on study day 7. […] A vehicle-only group was included as a negative control.

[2] = tested on: GXA 3038 gastric cancer PDX model; test: GXA 3038 HER2 positive gastric cancer PDX model, tumor growth inhibition; type: in vivo, Mice
Experimental: as §1, §2
(§4) Tucatinib was administered orally at a dose of 50 mg/kg twice per day for 28 days (study days 0-27). […] A vehicle-only group was included as a negative control.

[3] = tested on: CTG-0138 esophageal cancer PDX model; test: CTG-0138 HER2 positive esophageal cancer PDX model, tumor growth inhibition; type: in vivo, Mice
Experimental: as §1, §2, §4

[4] = tested on: CTG-0137 esophageal cancer PDX model; test: CTG-0137 HER2 positive esophageal cancer PDX model, tumor growth inhibition; type: in vivo, Mice
Experimental: as §1, §2, §4

CTG-0784 CRC PDX model = test: CTG-0784 HER2 positive CRC PDX model, tumor growth inhibition; type: in vivo, Mice
Experimental: as §1, §2, §4

NCI-H2170 cells = test: Response of NCI-H2170 cells to tucatinib in vitro; type: cell-based; details: previously demonstrated
[5] = tested on: GXA 3039 gastric cancer PDX model; test: GXA 3039 HER2 positive gastric cancer PDX model, tumor growth inhibition; type: in vivo, Mice
Experimental: as §1, §2, §4

[6] = tested on: CTG-0927 HER2 positive cholangiocarcinoma PDX model; test: CTG-0927 HER2 positive cholangiocarcinoma PDX model, tumor growth inhibition; type: in vivo, Mice; details: CTG-0927 cholangiocarcinoma PDX model
Experimental: as §1, §2, §4

CTG-0121 CRC PDX model = test: CTG-0121 HER2 positive CRC PDX model, tumor growth inhibition; type: in vivo, Mice
Experimental: as §1, §2, §4

[7] = tested on: GXA 3054 gastric cancer PDX model; test: GXA 3054 HER2 positive gastric cancer PDX model, tumor growth inhibition; type: in vivo, Mice
Experimental: as §1, §2, §4

Calu-3 cells = test: Response of Calu-3 cells to tucatinib in vitro; type: cell-based; details: previously demonstrated
[8] = tested on: NCI-H2170 NSCLC xenograft model; test: NCI-H2170 HER2 positive NSCLC xenograft model, tumor growth inhibition; type: in vivo, Mice
Experimental: as §1, §2, §3
For the NCI-H2170 study, tucatinib was administered orally at a dose of 50 mg/kg twice per day for 21 days, beginning on study day 18. […] A vehicle-only group was included as a negative control.

CTG-0383 CRC PDX model = test: CTG-0383 HER2 positive CRC PDX model, tumor growth inhibition; type: in vivo, Mice
Experimental: as §1, §2, §4

Cc1cc(Nc2ncnc3ccc(NC4=NC(C)(C)CO4)cc23)ccc1Oc1ccn2ncnc2c1 [Tucatinib, tucatinib]
effect on tumor growth (in words) [1]: inhibited tumor growth | effect on tumor growth (in words) [2]: inhibited tumor growth | effect on tumor growth (in words) [3]: inhibited tumor growth | effect on tumor growth (in words) [4]: inhibited tumor growth | effect on tumor growth (in words) (CTG-0784 CRC PDX model): inhibited tumor growth | response to tucatinib in vitro (NCI-H2170 cells): good responses | effect on tumor growth (in words) [5]: inhibited tumor growth | effect on tumor growth (in words) [6]: inhibited tumor growth | effect on tumor growth (in words) (CTG-0121 CRC PDX model): inhibited tumor growth | effect on tumor growth (in words) [7]: inhibited tumor growth | response to tucatinib in vitro (Calu-3 cells): good responses | effect on tumor growth (in words) [8]: inhibited tumor growth | effect on tumor growth (in words) (CTG-0383 CRC PDX model): inhibited tumor growth
